We go through 5 molecules from publication PMC2965201 (Bioorganic & medicinal chemistry, 2010).

Assay [1] relates to Rce1p. The settings on record: previously reported, ref [9], [10], [13], cited from earlier work; for Vmax: no quencher.
For assay [2], the system named is Rce1p. The settings on record: ref [8], [10]; cited from earlier work.
The target in another assay is T1, yeast Rce1p (Saccharomyces cerevisiae, UniProt Q03530).
T1 sequence (Q03530 1-315): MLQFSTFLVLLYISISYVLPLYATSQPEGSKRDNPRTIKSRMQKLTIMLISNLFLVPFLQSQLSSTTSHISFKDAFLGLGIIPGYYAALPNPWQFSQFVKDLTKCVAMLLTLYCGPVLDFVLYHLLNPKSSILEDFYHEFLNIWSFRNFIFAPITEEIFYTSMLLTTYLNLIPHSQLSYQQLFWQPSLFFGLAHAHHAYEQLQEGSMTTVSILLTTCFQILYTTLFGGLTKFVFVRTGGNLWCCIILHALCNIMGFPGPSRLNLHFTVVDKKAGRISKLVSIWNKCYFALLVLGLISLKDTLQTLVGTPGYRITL
As to the kind of experiment: In vitro fluorescence-based Ca1a2X proteolysis assay. It counts as biochemical, S. cerevisiae.

The test system of assay [3] is Rce1p. The assay can be described thus: Large-scale Rce1p proteolysis with ESI-MS and MS-MS identification of product. It counts as biochemical, S. cerevisiae. Conditions: 150 μM substrate, membranes 0.3 mg/mL, 100 mM Hepes, 5 mM MgCl2, pH 7.5, 30 °C, 3–3.5 h; ESI-MS [M+2H]2+.

One may read the Km as the concentration of substrate that gives half-maximal velocity. Turning to KSKTKC(Fr)VIM, in the assay with Rce1p [1], the Vmax is 600 nmol/h/mg Rce1p-containing membrane protein and the Km was 4 µM.

Turning to `[Zn]` [zinc], the “inhibition of Rce1p” value in the assay on Rce1p [2] is given as “inhibited”.

Consider Abz-KSKTKC(Fr)VIM, for which, in the assay on Rce1p [1], the Vmax is listed as 600 nmol/h/mg Rce1p-containing membrane protein and the Michaelis-Menten constant (Km) is 4 µM.

Turning to `c1cnc2c(c1)ccc1cccnc12` [1,10-phenanthroline], the “inhibition of Rce1p” value in the assay with Rce1p [2] was “inhibited”.

As to Abz-KSKTKC(C5BP)K(Dnp)IM [Peptide 4], the Vmax/KM at yeast Rce1p (carbonate-washed yeast membranes, pH 7.5, 30 °C, n=2 (2), n=5 (4)) is on record as 4.8×10^−5 min/mg protein. On yeast Rce1p (compared with 2), the “binding affinity of 4 relative to 2 (fold higher, from KM)” value was determined as 3.4 fold; the “efficiency (Vmax/KM) of 4 relative to 2 (fold lower)” value is “approximately 18 fold”; the “maximal rate of 4 relative to 2 (fold lower)” value is reported as “approximately 60 fold”. In the assay on Rce1p [3], the “identity of product of Rce1p-catalyzed proteolysis” value is given as “consistent with the expected product 8”.
